Data published in patent US20090302265A1, “Supercooling promoting agent” (priority 2006, published 2009).

Experiments:
[1] = test system: dead bacterial cells of ice nucleation active bacteria (Erwinia ananas); test: supercooling activity (droplet freezing on cooled copper plate, temperature at which 50% of droplets are frozen); format: physicochemical; settings: cooling 0.2° C./min; for supercooling activity (difference of freezing point vs buffer with ice nucleation bacteria only): 0.5 mg/mL test sample, 50 mM potassium phosphate buffer pH 7.0, 2 μL droplets; for supercooling activity: 0.1 mg/mL test compound, otherwise as example 1
Procedure: The supercooling activity (or represented as inhibiting activity of ice nucleus formation) is the value measured by the following method. […] A large number of 2 μL droplets of the solution are put on a cupper plate, which is temperature-controllable. Then, the cupper plate is cooled at the rate of 0.2° C./min, the number of frozen droplets are counted macroscopically and the temperature, wherein 50% of droplets are frozen, is defined as freezing point. The supercooling activity is defined as the difference (° C.) between the freezing point of solution containing test sample and ice nucleation active bacteria, and that of solution containing only ice nucleation bacteria and buffer solution.
The supercooling activities of these samples were measured by the following methods. After a buffer solution (50 mM potassium phosphate buffer, pH 7.0) containing dead bacterial cells (Wako pure chemical industries Ltd.,) of ice nucleation active bacteria (Erwinia ananas) mixed with 0.5 mg/mL of a test sample, 2 μL droplets of the solution are put on a cupper plate, which is temperature-controllable. Then, the cupper plate is cooled at the rate of 0.2° C./min, the number of frozen droplets are counted macroscopically and the temperature, wherein 50% of droplets are frozen, is defined as freezing point. The difference (° C.) between the freezing point and that of the buffer solution was measured.

pig liver cells = test: viability of pig liver cells after supercooled storage (trypan blue staining); format: cell-based; settings: 0.01% by weight in UW liquid with 1% by volume DMSO; −5° C. and −8° C.; 1, 4 and 7 days; FIG. 8
Procedure: The storage liquid was prepared by adding 0.01% by weight of kaempferol-7-glucoside (compound 2 (Cj5)), Extrasynthese Co.) and 1% by volume of DMSO (Wako pure chemical industries Ltd., guaranteed reagent) to a buffer solution (UW liquid, 100 mM lactobionic acid, 25 mM KH2PO4, 5 mM MgSO4, 30 mM raffinose, 2.5 mM adenosine, 3 mM GSH, 1 mM allopurinol, 0.25 mg/mL streptomycin, 10 UI/mL penicillin).
For comparison, a mixed solution (UW liquid) without kaempferol-7-O-glucoside and DMSO was prepared.
The viability of cells was evaluated by trypan blue (GIBCO) staining, when pig liver cells 5×10^6 cells/mL were dipped in 0.5 cc of the above storage liquid, supercooled at −5° C. and at −8° C., and stored for 1, 4 and 7 days.

[2] = test system: cranberry shoot apexes (buds); test: survival of cranberry shoot apexes after vitrification in liquid nitrogen and thawing; settings: 0.05% by weight in 75% vitrification liquid (75% PVS2); liquid nitrogen overnight, thawed at room temperature; FIG. 9A vs 9B
Procedure: As a vitrification liquid, 75% dilution solution of PVS2 liquid (22.5% by volume glycerol, 11.25% by volume of ethyleneglycol, 11.25% by volume of DMSO, […], the remainder was Murashige & Skoog medium, DUCHEFA BIOCHEMIE BV) supplemented with 0.05% by weight of kaempferol-7-O-glucoside (compound 2, Extrasynthese Co.) was used (hereinafter referred to as “75% vitrification liquid”).
For comparison, a mixed solution without kaempferol-7-O-glucoside was prepared. Shoot apexes (buds) are isolated from cranberry (subcultured in Hokkaido University, Graduate School of Agriculture) and dipped in the above mixed solution at room temperature.
On the other hand, survival of shoot apexes, which were dipped in 75% vitrification liquid containing kaempferol-7-O-glucoside at room temperature for a specified loading time, put into liquid nitrogen, frozen for overnight, and then thawed at room temperature, is shown in frozen batch of FIG. 9A. Similarly, survival of the apexes, which were dipped in a vitrification liquid without kaempferol-7-O-glucoside and frozen, is shown in frozen batch of FIG. 9B.

Compound	supercooling activity (difference of freezing point vs buffer with ice nucleation bacteria only) [1]	supercooling activity [1]	also measured
O=c1c(OC2OC(CO)[C@@H](O)C(O)[C@H]2O)c(-c2ccc(O)c(O)c2)oc2cc(O)cc(O)c12 (stereo partly drawn) [compound 1, quercetin-3-O-β-glucoside]	−1.8 °C	–	–
O=c1c(O)c(-c2ccc(O)cc2)oc2cc(OC3OC(CO)[C@@H](O)C(O)[C@H]3O)cc(O)c12 (stereo partly drawn) [compound 2, kaempherol-7-O-β-glucoside]	−7.7 °C	–	viability of cells after supercooled storage (pig liver cells): enables storage of viable animal cells for long-term; survival of shoot apexes after freezing (damage due to freezing) [2]: significantly reduced the damage due to freezing
COc1c(O)cc(O)c2c(=O)c(OC3OC(CO)[C@@H](O)C(O)[C@H]3O)c(-c3ccc(O)cc3)oc12 (stereo partly drawn) [compound 3, 8-methoxykaempferol-3-O-β-glucoside]	−0.2 °C	–	–
O=c1c(OC2OC(CO)[C@@H](O)C(O)[C@H]2O)c(-c2ccc(O)cc2)oc2cc(O)cc(O)c12 (stereo partly drawn) [compound 4, kaempferol-3-O-β-glucoside]	−2.5 °C	–	–
O=c1cc(-c2ccccc2)oc2cc(O[C@@H]3O[C@H](CO)[C@@H](O)[C@H](O)[C@H]3O)cc(O)c12 [compound 5, Chrycin-7-O-β-D-glucopyranoside]	–	−4.5 °C	–
O=c1cc(-c2ccc(O)cc2)oc2cc(O[C@@H]3O[C@H](CO)[C@@H](O)[C@H](O)[C@H]3O)cc(O)c12 [compound 6, apigenin 7-O-β-D-glucopyranoside]	–	−12.0 °C	–
O=c1cc(-c2ccc(O[C@@H]3O[C@H](CO)[C@@H](O)[C@H](O)[C@H]3O)cc2)oc2cc(O[C@@H]3O[C@H](CO)[C@@H](O)[C@H](O)[C@H]3O)cc(O)c12 [compound 7, apigenin 4′, 7-di-O-β-D-glucopyranoside]	–	−4.9 °C	–
C[C@@H]1O[C@@H](O[C@H]2[C@H](Oc3cc(O)c4c(=O)cc(-c5ccc(O)cc5)oc4c3)O[C@H](CO)[C@@H](O)[C@@H]2O)[C@H](O)[C@H](O)[C@H]1O [compound 8, apigenin 7-O-β-neohesperidoside]	–	−1.8 °C	–
